Assay results from the NIST ThermoML archive (doi:10.1021/je100472t).

Test: xn = mol fraction of the nth substance listed
Conditions: 101 kPa, Liquid; for speed of sound: Pulse-echo method; for mass density: Vibrating tube method

CNc1ccccc1 [N-methylaniline] + CCC(C)=O
Conditions | mass density [kg/m3] | speed of sound [m/s]
293.15 K, x2 = 0.0627 | 977.942 | 1562.9
293.15 K, x2 = 0.1133 | 970.977 | 1546.9
293.15 K, x2 = 0.1564 | 964.888 | 1532.9
293.15 K, x2 = 0.2058 | 957.75 | 1517
293.15 K, x2 = 0.2538 | 950.572 | 1501
293.15 K, x2 = 0.3018 | 943.182 | 1484.8
293.15 K, x2 = 0.3464 | 936.057 | 1469.4
293.15 K, x2 = 0.3938 | 928.444 | 1453
293.15 K, x2 = 0.4435 | 920.205 | 1435.6
293.15 K, x2 = 0.4907 | 912.022 | 1418.5
293.15 K, x2 = 0.5508 | 901.21 | 1396.2
293.15 K, x2 = 0.5959 | 892.779 | 1378.9
293.15 K, x2 = 0.6529 | 881.753 | 1356.6
293.15 K, x2 = 0.7489 | 862.241 | 1318.2
293.15 K, x2 = 0.7938 | 852.894 | 1300
293.15 K, x2 = 0.8492 | 840.63 | 1277
293.15 K, x2 = 0.8981 | 829.68 | 1256.7
293.15 K, x2 = 0.9525 | 816.716 | 1232.9
298.15 K, x2 = 0.076 | 972.066 | 1540.1
298.15 K, x2 = 0.1115 | 967.149 | 1528.8
298.15 K, x2 = 0.1566 | 960.718 | 1514.2
298.15 K, x2 = 0.2076 | 953.334 | 1497.6
298.15 K, x2 = 0.2589 | 945.633 | 1480.6
298.15 K, x2 = 0.2967 | 939.765 | 1467.7
298.15 K, x2 = 0.3471 | 931.809 | 1450.5
298.15 K, x2 = 0.3973 | 923.563 | 1432.8
298.15 K, x2 = 0.4477 | 915.055 | 1414.8
298.15 K, x2 = 0.495 | 906.694 | 1397.2
298.15 K, x2 = 0.5471 | 897.284 | 1377.8
298.15 K, x2 = 0.5992 | 887.579 | 1357.9
298.15 K, x2 = 0.6921 | 869.471 | 1321.7
298.15 K, x2 = 0.7463 | 858.202 | 1299.5
298.15 K, x2 = 0.8007 | 846.555 | 1277
298.15 K, x2 = 0.847 | 836.277 | 1257.5
298.15 K, x2 = 0.8993 | 824.346 | 1235.1
298.15 K, x2 = 0.9472 | 813 | 1214.5
303.15 K, x2 = 0.0641 | 969.669 | 1526
303.15 K, x2 = 0.1123 | 962.964 | 1510.7
303.15 K, x2 = 0.1581 | 956.434 | 1495.9
303.15 K, x2 = 0.2036 | 949.789 | 1481.1
303.15 K, x2 = 0.2591 | 941.381 | 1462.5
303.15 K, x2 = 0.3061 | 934.049 | 1446.5
303.15 K, x2 = 0.3513 | 926.789 | 1430.8
303.15 K, x2 = 0.4022 | 918.424 | 1412.9
303.15 K, x2 = 0.4472 | 910.653 | 1396.5
303.15 K, x2 = 0.5025 | 900.926 | 1376.1
303.15 K, x2 = 0.5536 | 891.605 | 1356.9
303.15 K, x2 = 0.5984 | 883.203 | 1339.7
303.15 K, x2 = 0.6489 | 873.485 | 1320.1
303.15 K, x2 = 0.6969 | 863.705 | 1300.7
303.15 K, x2 = 0.7543 | 851.719 | 1277.1
303.15 K, x2 = 0.8047 | 840.797 | 1256
303.15 K, x2 = 0.8497 | 830.818 | 1237.1
303.15 K, x2 = 0.8965 | 819.999 | 1216.8
303.15 K, x2 = 0.9524 | 806.615 | 1192.2

Nc1ccccc1 [aniline] + CCC(C)=O
Conditions | mass density [kg/m3] | speed of sound [m/s]
293.15 K, x2 = 0.058 | 1011.29 | 1633.7
293.15 K, x2 = 0.1122 | 1001.34 | 1612.2
293.15 K, x2 = 0.1576 | 993.678 | 1594.7
293.15 K, x2 = 0.2052 | 985.068 | 1576
293.15 K, x2 = 0.2543 | 976.056 | 1556.7
293.15 K, x2 = 0.3043 | 966.42 | 1536.6
293.15 K, x2 = 0.3562 | 956.208 | 1515.5
293.15 K, x2 = 0.4059 | 946.279 | 1495.2
293.15 K, x2 = 0.453 | 936.5 | 1475.2
293.15 K, x2 = 0.5048 | 925.617 | 1453.2
293.15 K, x2 = 0.5443 | 917.103 | 1435.8
293.15 K, x2 = 0.612 | 902.143 | 1405.4
293.15 K, x2 = 0.648 | 894.022 | 1389
293.15 K, x2 = 0.7044 | 880.787 | 1362.1
293.15 K, x2 = 0.7754 | 863.737 | 1328.6
293.15 K, x2 = 0.8081 | 855.598 | 1311.3
293.15 K, x2 = 0.8493 | 845.213 | 1290.5
293.15 K, x2 = 0.9027 | 831.249 | 1262.9
293.15 K, x2 = 0.9476 | 819.373 | 1239.6
298.15 K, x2 = 0.056 | 1007.34 | 1615.4
298.15 K, x2 = 0.1188 | 997.647 | 1593.6
298.15 K, x2 = 0.1547 | 990.216 | 1576.9
298.15 K, x2 = 0.2038 | 981.189 | 1557.5
298.15 K, x2 = 0.2563 | 971.23 | 1536.5
298.15 K, x2 = 0.3064 | 961.559 | 1516.3
298.15 K, x2 = 0.3474 | 953.414 | 1499.6
298.15 K, x2 = 0.4089 | 940.989 | 1474.1
298.15 K, x2 = 0.4523 | 932.032 | 1455.8
298.15 K, x2 = 0.5026 | 921.385 | 1434.1
298.15 K, x2 = 0.5467 | 911.916 | 1414.9
298.15 K, x2 = 0.6019 | 899.666 | 1390
298.15 K, x2 = 0.6481 | 889.131 | 1368.5
298.15 K, x2 = 0.7048 | 875.989 | 1341.9
298.15 K, x2 = 0.7451 | 866.153 | 1322
298.15 K, x2 = 0.803 | 851.853 | 1293.2
298.15 K, x2 = 0.8487 | 840.349 | 1270.1
298.15 K, x2 = 0.9019 | 826.554 | 1242.8
298.15 K, x2 = 0.9489 | 813.934 | 1218
303.15 K, x2 = 0.0582 | 1002.61 | 1596.1
303.15 K, x2 = 0.1097 | 993.104 | 1575.6
303.15 K, x2 = 0.1485 | 986.049 | 1560.3
303.15 K, x2 = 0.205 | 975.667 | 1538
303.15 K, x2 = 0.2507 | 967.388 | 1520.3
303.15 K, x2 = 0.3064 | 956.964 | 1497.9
303.15 K, x2 = 0.3426 | 949.873 | 1483
303.15 K, x2 = 0.414 | 935.434 | 1453.3
303.15 K, x2 = 0.447 | 928.634 | 1439.5
303.15 K, x2 = 0.491 | 919.218 | 1420.3
303.15 K, x2 = 0.5537 | 905.656 | 1392.7
303.15 K, x2 = 0.6044 | 894.417 | 1369.8
303.15 K, x2 = 0.6434 | 885.415 | 1351.5
303.15 K, x2 = 0.7038 | 871.181 | 1322.6
303.15 K, x2 = 0.7716 | 854.721 | 1289.4
303.15 K, x2 = 0.8079 | 845.614 | 1271.1
303.15 K, x2 = 0.8481 | 835.388 | 1250.6
303.15 K, x2 = 0.8988 | 822.096 | 1224.2
303.15 K, x2 = 0.9466 | 809.221 | 1199
